Assay [1] has as its system PAR. Description: PAR overlay assay of full length AIF and mutants. Format: binding. To be noted: for reduced PAR binding: radioactive signal normalized to WT-AIF; for binding to 32P-labeled automodified PARP-1 or purified 32P-labeled PAR / effect of hundred fold excess of salmon sperm DNA on PAR binding: overlay assay; for binding to 32P-labeled automodified PARP-1 or purified 32P-labeled PAR: 100 nM PAR; for effect of hundred fold excess of salmon sperm DNA on PAR binding: 32P-labeled PAR; for effect of salmon sperm DNA on PAR binding: salmon sperm DNA at 760 μM. As for the experimental part:
The following experiment was performed to confirm whether AIF in fact binds to PAR. Applicants performed 3 trials of an overlay assay on recombinant AIF with affinity-purified biotin-labeled PAR. Histone H3, which binds to PAR with high affinity, was included as a positive control and bovine serum albumin (“BSA”) was included as a negative control, as described by P. Chang et al. (Nat Cell Bio, 2005). FIG. 1B depicts three photos side by side for gels representative of all trials for these overlay assays. […] Thus, Applicants took the results of these two tests as confirming that AIF binds to PAR in vitro.
To further study these potential AIF PBMs, Applicants performed the following experiment to examine the effect of mutating AIFm amino acids 222-244, 441-463, and/or 567-592 to poly-alanine on the ability of AIF to bind PAR. FIG. 6 comprises black and white photographs of representative gels from an overlay assay of His-tagged WT-AIF, AIFm222-244, AIFm441-463, AIFm567-592, AIFΔ567-592 (i.e., a mutant lacking AAs 567-592), and AIF(K254A, R264A) (i.e., mutating K to A at 254 and R to A at 264) mutants with ^32P-labeled automodified PARP-1 (equivalent to 100 nM of PAR), purified ^32P-labeled PAR (100 nM), or purified ^32P-labeled PAR with either a 100-fold excess of DNA or cold PAR. […] The same can be assumed to corresponding sequences for other species, such as those identified in FIG. 4.
Additionally, to exclude the possibility that PAR polymer is binding to AIF through its DNA-binding domain, PAR polymer binding was assessed against the full length AIF DNA-binding mutant AIFK254A;R264A as described by H Cande et al. (Nat Struct Biol, 2002).
Finally, Human AIF (“AIFH”) is known to bind to DNA through a groove between the FAD-binding domain (“D1”) and C-terminal domain (“D3”). A mutant form of AIFH in which lysine 255 is substituted with alanine and arginine 265 is substituted with alanine (AIFK255A;R265A) completely lacks DNA binding. To investigate the possible contribution of the AIF DNA-binding domain to PAR binding, Applicants assessed PAR binding to AIFm mutated in the same way (AIFK254A;R264A). […] Thus, Applicants concluded that the AIF PAR-binding site is separable from its DNA-binding site, meaning that such binding could be inhibited by genetically modifying AIF without impacting the natural DNA binding capabilities of AIF or potentially by otherwise inhibiting the binding action of the PBMs.

In another assay the test system is isolated mitochondria. Description: AIF binding to isolated mitochondria. How it is done:
One commonly accepted estimate is that approximately 20%-30% of AIF resides on the cytosolic side of the outer membrane of mitochondria, where it is poised to be rapidly released by PAR following PARP-1 activation. Applicants thus wanted to perform tests of AIF binding to mitochondria determine how readily purified WT-AIF and Pbm-AIF bind to mitochondria in a time- and concentration-dependent manner. Specifically, recombinant WT-AIF (2.5 ng/μl) and Pbm-AIF (2.5 ng/μl) were incubated with isolated mitochondria (200 μg/ml) for 1 minute, 5 minutes, 10 minutes, 15 minutes, 20 minutes or 30 minutes. […] The results of this portion of the experiment is provided by the graph of FIG. 15B.
To investigate the mechanism underlying mitochondrial AIF release following PARP-1 activation, Applicants incubated isolated mitochondria with purified non-tagged forms of AIF in the presence or absence of PAR and followed this by centrifugation to remove the mitochondria. Detection of AIF remaining in the supernatant was thereafter performed through immunoblot analysis.
The supernatant collected in the experiments of Example 16 were also analyzed for the presence of Tom20 and cyclochrome c.

Assay [2] deals with PAR. In words: nitrocellulose saturation binding experiments. To be noted: PAR binding, saturation binding. From the text: Applicants thereafter repeated the experiments using both wild type and mutant AIFm peptides spanning only amino acids 567-592 instead of full length AIFm and obtained results consistent with those using full-length AIF. […] The double amino acid mutant Dm (corresponding to only amino acids 567-592 of AIF-Dm so as to consist of SEQ. ID NO. 16) bound PAR. […] Thus, it is preferred in embodiments of the invention when conducting genetic manipulations to convert at least three target basic amino acids in the PBM to hydrophobic amino acids.
The PAR polymer binding properties of the mutant Pbm-AIF was then measured using full-length recombinant His-WT-AIF and His tagged Pbm-AIF (“His-Pbm-AIF”) via a series of nitrocellulose saturation binding experiments. Similar experiments were also conducted for the shorter peptides Dm and Tm in comparison to WT. FIG. 10B through FIG. 10D comprise charts reporting data from these various experiments. With regard to the shorter peptides, Applicants determined that the binding affinity constant (“Kd”) and maximum binding capacity (“Bmax”) of these AIF mimetic peptides and the results are reported in the chart of FIG. 10B. […] FIG. 10D comprises a Scatchard plot (95% confidence interval) of the results.

Residue numbers refer to the chain shown, from its start. In names and notes the source's numbering stands. Entries after “also recorded” stand apart in the source; their conditions may differ. Where no end group is shown, it is not given here.

With “AIFR588L;K589L: His-tagged mouse AIF double leucine mutant, SEQ. ID NO. 19 (LRDKVVVGIVLWNVFNRMPIALLIIK; also: His tag)”, the “reduced PAR binding” value in the assay with PAR [1] was “about 85%”.

For the molecule “triple leucine mutant: mouse AIF mutant R588L;K589L;K592L (LRDKVVVGIVLWNVFNRMPIALLIIL; mouse)”, the PAR binding entry with PAR [1] (His-tagged proteins, purified PAR, normalized to WT-AIF, result in words) is “nearly abolished PAR-binding”.

In the case of “Poly(ADP-ribose) [PAR, reference compound]”, the “release of endogenous cytochrome c from mitochondria” value is on record as “failed to induce the release of endogenous cytochrome c” in the assay with isolated mitochondria (5 nM and 50 nM PAR); “a weak cytochrome c signal could be detected” with isolated mitochondria (100 nM PAR). The “Tom20 in the supernatant (mitochondrial integrity)” value in the assay on isolated mitochondria (any concentration of PAR used) is listed as “could not be detected in the supernatant”.

As to “peptide of amino acids 567-592 of mouse AIF, SEQ. ID NO. 10 LRDKVVVGIVLWNVFNRMPIARKIIK (mouse) [WT peptide]”, the Bmax with PAR [2] was 4.57 pmol; in the assay on PAR [2] (listed as AIFm567-592 peptide), 4.55 pmol.

As for “AIFK589L;K592L: His-tagged mouse AIF double leucine mutant, SEQ. ID NO. 21 (LRDKVVVGIVLWNVFNRMPIARLIIL; also: His tag)”, in the assay with PAR [1], the “reduced PAR binding” value is recorded as “about 85%”.

As for “AIFR588L;K592L: His-tagged mouse AIF double leucine mutant, SEQ. ID NO. 20 (LRDKVVVGIVLWNVFNRMPIALKIIL; also: His tag)”, the “reduced PAR binding” value with PAR [1] is on record as “about 85%”.

B1: AIFm441-463: His-tagged mouse AIF with amino acids 441 to 463 mutated to poly-alanine (protein)
chain: MFRCGGLAGAFKQKLVPLVRTVYVQRPKQRNRLPGNLFQQWRVPLELQMARQMASSGSSGGKMDNSVLVLIVGLSTIGAGAYAYKTIKEDQKRYNERVMGLGLSPEEKQRRAIASATEGGSVPQIRAPSHVPFLLIGGGTAAFAAARSIRARDPGARVLIVSEDPELPYMRPPLSKELWFSDDPNVTKTLQFRQWNGKERSIYFQPPSFYVSAQDLPNIENGGVAVLTGKKVVHLDVRGNMVKLNDGSQITFEKCLIATGGTPRSLSAIDRAGAEVKSRTTLFRKIGDFRALEKISREVKSITVIGGGFLGSELACALGRKSQASGIEVIQLFPEKGNMGKILPQYLSNWTMEKVKREGVKVMPNAIVQSVGVSGGRLLIKLKDGRKVETDHIVTAVGLEPNVELAKTGGLEIDSDFGGFRVNAELQARSNIWVAGDAACAAAAAAAAAAAAAAAAAAAAAAAAGENMTGAAKPYWHQSMFWSDLGPDVGYEAIGLVDSSLPTVGVFAKATAQDNPKSATEQSGTGIRSESETESEASEITIPPSAPAVPQVPVEGEDYGKGVIFYLRDKVVVGIVLWNVFNRMPIARKIIKDGEQHEDLNEVAKLFNIHED
modifications: left off: small tags and cut ends
notes: His-tagged mouse AIF with amino acids 441 to 463 mutated to poly-alanine
For the molecule B1, the “binding to 32P-labeled automodified PARP-1 or purified 32P-labeled PAR” value with PAR [1] (His-tagged proteins) was “comparable binding to that of unmutated WT-AIFm”. In addition, in the assay with PAR [1], the “effect of hundred fold excess of salmon sperm DNA on PAR binding” value was “fails to disrupt” and the “effect of salmon sperm DNA on PAR binding” value is listed as “failed to disrupt PAR binding”.

B2: AIF-Sm: full length mouse AIF, arginine at 588 substituted with alanine (protein, UniProt Q9Z0X1 1-612, looked up, variant R588A)
chain: MFRCGGLAGAFKQKLVPLVRTVYVQRPKQRNRLPGNLFQQWRVPLELQMARQMASSGSSGGKMDNSVLVLIVGLSTIGAGAYAYKTIKEDQKRYNERVMGLGLSPEEKQRRAIASATEGGSVPQIRAPSHVPFLLIGGGTAAFAAARSIRARDPGARVLIVSEDPELPYMRPPLSKELWFSDDPNVTKTLQFRQWNGKERSIYFQPPSFYVSAQDLPNIENGGVAVLTGKKVVHLDVRGNMVKLNDGSQITFEKCLIATGGTPRSLSAIDRAGAEVKSRTTLFRKIGDFRALEKISREVKSITVIGGGFLGSELACALGRKSQASGIEVIQLFPEKGNMGKILPQYLSNWTMEKVKREGVKVMPNAIVQSVGVSGGRLLIKLKDGRKVETDHIVTAVGLEPNVELAKTGGLEIDSDFGGFRVNAELQARSNIWVAGDAACFYDIKLGRRRVEHHDHAVVSGRLAGENMTGAAKPYWHQSMFWSDLGPDVGYEAIGLVDSSLPTVGVFAKATAQDNPKSATEQSGTGIRSESETESEASEITIPPSAPAVPQVPVEGEDYGKGVIFYLRDKVVVGIVLWNVFNRMPIAAKIIKDGEQHEDLNEVAKLFNIHED
modifications: full-length
notes: full length mouse AIF, arginine at 588 substituted with alanine
For B2, the “reduced PAR binding” value with PAR [1] came out at 40%.

B3: AIF-Dm: full length mouse AIF, arginine 588 and lysine 589 substituted with alanines (protein, UniProt Q9Z0X1 1-612, looked up, variant R588A K589A)
chain: B2 chain with K589A
modifications: full-length
notes: full length mouse AIF, arginine 588 and lysine 589 substituted with alanines
Regarding B3, in the assay with PAR [1], the “reduced PAR binding” value is given as 80%.

B4: AIFK254A;R264A: full length mouse AIF DNA-binding mutant, K to A at 254 and R to A at 264 (protein)
chain: B2 chain with K254A, R264A, A588R
modifications: left off: small tags and cut ends
Turning to B4, in the assay on PAR [1] (His-tagged proteins), the “binding to 32P-labeled automodified PARP-1 or purified 32P-labeled PAR” value was “still substantially binds; also recorded: bound to ^32P-labeled automodified PARP-1 and purified ^32P-labeled PAR”. In addition, in the assay on PAR [1], the “effect of hundred fold excess of salmon sperm DNA on PAR binding” value was “fails to disrupt” and the “effect of salmon sperm DNA on PAR binding” value is recorded as “failed to disrupt PAR binding”.

B5: AIF-Qm: full length mouse AIF, arginine 588, lysine 589, lysine 592 and arginine 583 substituted with alanines (protein, UniProt Q9Z0X1 1-612, looked up, variant R583A R588A K589A K592A)
chain: B2 chain with R583A, K589A, K592A
modifications: full-length
notes: full length mouse AIF, arginine 588, lysine 589, lysine 592 and arginine 583 substituted with alanines
As for B5, the “reduced PAR binding” value in the assay on PAR [1] is given as 90%.

Source of the values: patent US20120122765A1, “COMPOUNDS AND RELATED METHODS FOR MANIPULATING PARP-1-DEPENDENT CELL DEATH” (priority 2010, published 2012).
